Assays:
[1] = biological target: T1, Angiotensin II receptor (Rattus norvegicus) (UniProt P29089+P25095+P35351); assay: In vivo inhibition of pressor response induced by Angiotensin II (AII) following intravenous administration to pithed rats; format: functional, organism-based
[2] = biological target: T1, Angiotensin II receptor (Rattus norvegicus); assay: In vivo inhibition of pressor response induced by Angiotensin II (AII) following oral administration to pithed rats; format: functional, organism-based
[3] = biological target: T2, Angiotensin II receptor (AT-1) type-1 (Rattus norvegicus, UniProt P29089+P25095); assay: In vitro displacement of [125I]angiotensin II from rat liver (Angiotensin 1 receptor) membrane preparation
T2 sequence (P29089 whole entry): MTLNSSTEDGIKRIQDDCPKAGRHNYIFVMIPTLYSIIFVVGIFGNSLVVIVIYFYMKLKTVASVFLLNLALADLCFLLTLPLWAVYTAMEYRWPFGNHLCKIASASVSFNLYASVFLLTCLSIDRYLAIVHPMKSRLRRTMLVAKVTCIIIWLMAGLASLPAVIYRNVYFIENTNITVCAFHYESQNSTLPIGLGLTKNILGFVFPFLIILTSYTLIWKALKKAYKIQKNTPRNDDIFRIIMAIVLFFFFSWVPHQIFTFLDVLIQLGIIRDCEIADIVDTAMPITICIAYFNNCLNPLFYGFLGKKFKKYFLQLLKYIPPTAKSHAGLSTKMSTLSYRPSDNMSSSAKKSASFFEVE
T2 sequence (P25095 whole entry): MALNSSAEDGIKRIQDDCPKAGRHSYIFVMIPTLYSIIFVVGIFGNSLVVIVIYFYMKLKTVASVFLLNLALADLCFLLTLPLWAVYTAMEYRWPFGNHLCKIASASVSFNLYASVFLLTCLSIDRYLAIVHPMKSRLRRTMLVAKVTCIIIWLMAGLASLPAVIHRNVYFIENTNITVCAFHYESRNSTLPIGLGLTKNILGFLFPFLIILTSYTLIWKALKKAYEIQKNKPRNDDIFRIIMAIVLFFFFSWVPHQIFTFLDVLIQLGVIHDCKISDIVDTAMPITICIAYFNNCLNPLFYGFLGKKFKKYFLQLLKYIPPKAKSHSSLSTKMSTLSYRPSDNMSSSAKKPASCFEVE

T1 sequence (P35351 whole entry, looked up, one chain of several): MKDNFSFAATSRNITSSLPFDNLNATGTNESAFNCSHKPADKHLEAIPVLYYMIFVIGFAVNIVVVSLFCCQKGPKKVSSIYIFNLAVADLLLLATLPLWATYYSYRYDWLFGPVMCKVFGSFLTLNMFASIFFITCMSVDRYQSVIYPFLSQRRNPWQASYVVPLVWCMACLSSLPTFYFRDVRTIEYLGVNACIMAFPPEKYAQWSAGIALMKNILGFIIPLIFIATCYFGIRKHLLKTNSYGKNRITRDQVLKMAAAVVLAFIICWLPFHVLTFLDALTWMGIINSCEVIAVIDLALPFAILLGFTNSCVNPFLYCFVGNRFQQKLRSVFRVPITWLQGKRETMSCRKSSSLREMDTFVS

ID50 [1] [mg/kg]	ID50 [2] [mg/kg]	IC50 [3] [nM]	SMILES
0.27	4.9	1.9	CCCCc1nc(SC)c(C(=O)O)n1Cc1ccc(-c2ccccc2S(=O)(=O)NC(=O)NC)cc1
		0.5	CCCc1nc(SC)c(C(=O)O)n1Cc1ccc(-c2ccccc2S(=O)(=O)NC(=O)NC2CCCCC2)cc1
1.84	> 10	1.3	CCc1nc(SC)c(C(=O)O)n1Cc1ccc(-c2ccccc2S(=O)(=O)NC(=O)NCC2CCCCC2)cc1
0.35		0.1	CCCCc1nc(SC)c(C(=O)O)n1Cc1ccc(-c2ccccc2S(=O)(=O)NC(=O)NCC2CCCCC2)cc1
1.37		0.1	CCc1nc(SC)c(C(=O)O)n1Cc1ccc(-c2ccccc2S(=O)(=O)NC(=O)NCc2ccccc2)cc1
0.17	1.1	0.2	CCCCc1nc(SC)c(C(=O)O)n1Cc1ccc(-c2ccccc2S(=O)(=O)NC(=O)NCC)cc1
	1	0.1	CCCc1nc(SC)c(C(=O)O)n1Cc1ccc(-c2ccccc2S(=O)(=O)NC(=O)NCC2CCCC2)cc1
0.22	1.1	0.07	CCCc1nc(SC(F)F)c(C(=O)O)n1Cc1ccc(-c2ccccc2S(=O)(=O)NC(=O)CC2CCCCC2)cc1
0.3	1.5	0.1	CCCc1nc(SC)c(C(=O)O)n1Cc1ccc(-c2ccccc2S(=O)(=O)NC(=O)NCC2CCCCC2)cc1
0.6	1.7	0.2	CCCCc1nc(SC(F)F)c(C(=O)O)n1Cc1ccc(-c2ccccc2S(=O)(=O)NC(=O)CC2CCCCC2)cc1
0.11	0.7	0.5	CCCCc1nc(SC)c(C(=O)O)n1Cc1ccc(-c2ccccc2S(=O)(=O)NC(=O)NCCC)cc1

Second part, the compound before the results:

SMILES	ID50 [1] [mg/kg]	ID50 [2] [mg/kg]	IC50 [3] [nM]
CCCc1nc(SC(F)F)c(C(=O)O)n1Cc1ccc(-c2ccccc2S(=O)(=O)NC(=O)C(C)c2ccccc2)cc1 (configuration not stated)			0.3
CCCc1nc(SC(F)F)c(C(=O)O)n1Cc1ccc(-c2ccccc2S(=O)(=O)NC(=O)Cc2cccs2)cc1	0.13	3	0.07
CCCc1nc(SC(F)F)c(C(=O)O)n1Cc1ccc(-c2ccccc2S(=O)(=O)NC(=O)CCc2cccs2)cc1	0.33	3.1	0.03
CCCc1nc(SC(F)F)c(C(=O)O)n1Cc1ccc(-c2ccccc2S(=O)(=O)NC(=O)CCc2ccccc2)cc1	0.64		0.1
CCCc1nc(SC(F)F)c(C(=O)O)n1Cc1ccc(-c2ccccc2S(=O)(=O)NC(=O)CCCc2ccccc2)cc1	0.52		0.7
CCCCc1nc(SC)c(C(=O)O)n1Cc1ccc(-c2ccccc2S(=O)(=O)NC(=O)NC(c2ccccc2)c2ccccc2)cc1			0.4
CCCc1nc(SC(F)F)c(C(=O)O)n1Cc1ccc(-c2ccccc2S(=O)(=O)NC(=O)Cc2ccccc2)cc1	0.26	2	0.2
CCCCNC(=O)NS(=O)(=O)c1ccccc1-c1ccc(Cn2c(CCCC)nc(SC)c2C(=O)O)cc1	0.09	0.2	0.2
CCCc1nc(SC)c(C(=O)O)n1Cc1ccc(-c2ccccc2S(=O)(=O)NC(=O)Nc2ccc(C)cc2)cc1	0.87		1
CCCc1nc(SC(F)F)c(C(=O)O)n1Cc1ccc(-c2ccccc2S(=O)(=O)NC(=O)Cc2ccc(F)cc2)cc1	0.43		0.1
CCCCc1nc(SC(F)F)c(C(=O)O)n1Cc1ccc(-c2ccccc2S(=O)(=O)NC(=O)CCC)cc1	0.09	0.8	0.5
CCCc1nc(SC)c(C(=O)O)n1Cc1ccc(-c2ccccc2S(=O)(=O)NC(=O)NCc2ccccc2)cc1	0.22	1.4	0.2
CCCc1nc(SC(F)F)c(C(=O)O)n1Cc1ccc(-c2ccccc2S(=O)(=O)NC(=O)Cc2ccc3ccccc3c2)cc1			0.1
CCCc1nc(SC(F)F)c(C(=O)O)n1Cc1ccc(-c2ccccc2S(=O)(=O)NC(=O)Cc2ccccc2Cl)cc1	0.8		0.3
CCCc1nc(SC(F)F)c(C(=O)O)n1Cc1ccc(-c2ccccc2S(=O)(=O)NC(=O)Cc2ccc3c(c2)OCO3)cc1	0.35	10	0.3
CCCCc1nc(SC(F)F)c(C(=O)O)n1Cc1ccc(-c2ccccc2S(=O)(=O)NC(=O)Cc2ccccc2)cc1	0.36	2.2	0.15
CCCc1nc(SC)c(C(=O)O)n1Cc1ccc(-c2ccccc2S(=O)(=O)NC(=O)NCc2cccs2)cc1		1	0.1
CCCCc1nc(SC)c(C(=O)O)n1Cc1ccc(-c2ccccc2S(=O)(=O)NC(=O)N(c2ccccc2)c2ccccc2)cc1	5.8		1.2
CCCCc1nc(SC)c(C(=O)O)n1Cc1ccc(-c2ccccc2S(=O)(=O)NC(=O)NCc2ccccc2)cc1			0.1
CCCc1nc(SC)c(C(=O)O)n1Cc1ccc(-c2ccccc2S(=O)(=O)NC(=O)Nc2ccccc2)cc1	0.52		2.3

Source: ChEMBL document CHEMBL1128069, “Balanced AT1 and AT2 angiotensin II antagonists. I. New orally active 5-carboxyl imidazolyl biphenyl sulfonylureas” (Bioorg Med Chem Lett, 1995)
